Measured values published in PubChem BioAssay (NCI).
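1) Cells in 96-well plates. 2) Compound, 48 h, 5 concentrations. 3) Linear interpolation between surrounding doses. 4) Unreached endpoint = highest concentration. GI50: concentration for 50% inhibition of growth. TGI denotes the concentration required for complete inhibition of growth.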

What was measured:
Assay in all cases: DTP human tumour cell line panel, 48 h
UO-31 renal = tested on: UO-31 renal
HOP-92 NSCLC = tested on: HOP-92 NSCLC
SNB-75 CNS = tested on: SNB-75 CNS
HCC-2998 colon = tested on: HCC-2998 colon
UACC-257 melanoma = tested on: UACC-257 melanoma
SF-268 CNS = tested on: SF-268 CNS
A549 NSCLC = tested on: A549 NSCLC
SW-620 colon = tested on: SW-620 colon
M19-MEL melanoma = tested on: M19-MEL melanoma
HCT-116 colon = tested on: HCT-116 colon
CCRF-CEM leukemia = tested on: CCRF-CEM leukemia
SN12C renal = tested on: SN12C renal
OVCAR-4 ovarian = tested on: OVCAR-4 ovarian
SF-295 CNS = tested on: SF-295 CNS
OVCAR-3 ovarian = tested on: OVCAR-3 ovarian
OVCAR-5 ovarian = tested on: OVCAR-5 ovarian
KM12 colon = tested on: KM12 colon
NCI-H522 lung = tested on: NCI-H522 lung
SK-MEL-5 melanoma = tested on: SK-MEL-5 melanoma
UACC-62 melanoma = tested on: UACC-62 melanoma
MOLT-4 leukemia = tested on: MOLT-4 leukemia
ACHN renal = tested on: ACHN renal
K-562 leukemia = tested on: K-562 leukemia
SNB-19 CNS = tested on: SNB-19 CNS
KM20L2 colon = tested on: KM20L2 colon
786-0 renal = tested on: 786-0 renal
RPMI-8226 leukemia = tested on: RPMI-8226 leukemia
HT29 colon = tested on: HT29 colon
A498 renal = tested on: A498 renal
NCI-H460 lung = tested on: NCI-H460 lung
NCI-H226 lung = tested on: NCI-H226 lung
LXFL 529 NSCLC = tested on: LXFL 529 NSCLC
SK-OV-3 ovarian = tested on: SK-OV-3 ovarian
U251 CNS = tested on: U251 CNS
EKVX NSCLC = tested on: EKVX NSCLC
CAKI-1 renal = tested on: CAKI-1 renal
TK-10 renal = tested on: TK-10 renal
OVCAR-8 ovarian = tested on: OVCAR-8 ovarian
DLD-1 colon = tested on: DLD-1 colon
SF-539 CNS = tested on: SF-539 CNS
HCT-15 colon = tested on: HCT-15 colon
HL-60(TB) leukemia = tested on: HL-60(TB) leukemia
MALME-3M melanoma = tested on: MALME-3M melanoma
SK-MEL-2 melanoma = tested on: SK-MEL-2 melanoma
IGROV1 ovarian = tested on: IGROV1 ovarian
M14 melanoma = tested on: M14 melanoma
HOP-62 NSCLC = tested on: HOP-62 NSCLC
SK-MEL-28 melanoma = tested on: SK-MEL-28 melanoma
COLO 205 colon = tested on: COLO 205 colon
NCI-H23 lung = tested on: NCI-H23 lung

## CC(=O)[CH-]C(=O)c1ccccc1.CC(=O)[CH-]C(=O)c1ccccc1.CC(=O)[CH-]C(=O)c1ccccc1.[Nd+3].[OH3+]
UO-31 renal
  GI50: > 100 µM
  TGI: > 100 µM
HOP-92 NSCLC
  GI50: 29.5 µM
  TGI: 77.4 µM
SNB-75 CNS
  GI50: 6.66 µM
  TGI: 43.4 µM
HCC-2998 colon
  GI50: 85.7 µM
  TGI: > 100 µM
UACC-257 melanoma
  GI50: 52.1 µM
  TGI: > 100 µM
SF-268 CNS
  GI50: 41.3 µM
  TGI: > 100 µM
A549 NSCLC
  GI50: > 100 µM
  TGI: > 100 µM
SW-620 colon
  GI50: 55.2 µM
  TGI: > 100 µM
M19-MEL melanoma
  GI50: 31.4 µM
  TGI: > 100 µM
HCT-116 colon
  GI50: 46.7 µM
  TGI: > 100 µM
CCRF-CEM leukemia
  GI50: 9.7 µM
  TGI: > 100 µM
SN12C renal
  GI50: 42.3 µM
  TGI: > 100 µM
OVCAR-4 ovarian
  GI50: 93.8 µM
  TGI: > 100 µM
SF-295 CNS
  GI50: 21.2 µM
  TGI: 86.2 µM
OVCAR-3 ovarian
  GI50: 45.7 µM
  TGI: > 100 µM
OVCAR-5 ovarian
  GI50: 93.1 µM
  TGI: > 100 µM
KM12 colon
  GI50: 13.4 µM
  TGI: > 100 µM
NCI-H522 lung
  GI50: 12.1 µM
  TGI: > 100 µM
SK-MEL-5 melanoma
  GI50: 38.1 µM
  TGI: > 100 µM
UACC-62 melanoma
  GI50: 45.5 µM
  TGI: > 100 µM
MOLT-4 leukemia
  GI50: 28.4 µM
  TGI: > 100 µM
ACHN renal
  GI50: 48.6 µM
  TGI: > 100 µM
K-562 leukemia
  GI50: 42.6 µM
  TGI: > 100 µM
SNB-19 CNS
  GI50: > 100 µM
  TGI: > 100 µM
KM20L2 colon
  GI50: 38 µM
  TGI: > 100 µM
786-0 renal
  GI50: 37 µM
  TGI: > 100 µM
RPMI-8226 leukemia
  GI50: 46.6 µM
  TGI: > 100 µM
HT29 colon
  GI50: 30 µM
  TGI: > 100 µM
A498 renal
  GI50: > 100 µM
  TGI: > 100 µM
NCI-H460 lung
  GI50: 42.8 µM
  TGI: > 100 µM
NCI-H226 lung
  GI50: > 100 µM
  TGI: > 100 µM
LXFL 529 NSCLC
  GI50: 71.1 µM
  TGI: > 100 µM
SK-OV-3 ovarian
  GI50: 31.7 µM
  TGI: 99 µM
U251 CNS
  GI50: 37 µM
  TGI: > 100 µM
EKVX NSCLC
  GI50: 60.9 µM
  TGI: > 100 µM
CAKI-1 renal
  GI50: 61 µM
  TGI: > 100 µM
TK-10 renal
  GI50: > 100 µM
  TGI: > 100 µM
OVCAR-8 ovarian
  GI50: 27.2 µM
  TGI: > 100 µM
DLD-1 colon
  GI50: 25 µM
  TGI: > 100 µM
SF-539 CNS
  GI50: 52.9 µM
  TGI: > 100 µM
HCT-15 colon
  GI50: 42 µM
  TGI: > 100 µM
HL-60(TB) leukemia
  GI50: 30.1 µM
  TGI: > 100 µM
MALME-3M melanoma
  GI50: 27.2 µM
  TGI: 94.4 µM
SK-MEL-2 melanoma
  GI50: 25.9 µM
  TGI: > 100 µM
IGROV1 ovarian
  GI50: 97.9 µM
  TGI: > 100 µM
M14 melanoma
  GI50: 43.2 µM
  TGI: > 100 µM
HOP-62 NSCLC
  GI50: 31.9 µM
  TGI: > 100 µM
SK-MEL-28 melanoma
  GI50: 66.9 µM
  TGI: > 100 µM
COLO 205 colon
  GI50: 47.3 µM
  TGI: > 100 µM
NCI-H23 lung
  GI50: 37.8 µM
  TGI: > 100 µM
